According to BigSolDB 2.1:

Cc1cc(=O)[nH]c(=S)[nH]1
solubility (mole fraction)
Details | 278.15 K | 283.15 K | 288.15 K | 293.15 K | 298.15 K | 303.15 K | 308.15 K | 313.15 K | 318.15 K | 323.15 K
in DMF | 0.0117 | 0.0144 | 0.0174 | 0.0207 | 0.0252 | 0.0294 | 0.0346 | 0.0396 | 0.0463 | 0.0538
in DMSO | – | – | – | 0.0379 | 0.0432 | 0.0491 | 0.0549 | 0.0619 | 0.0692 | 0.0773
in NMP | 0.013 | 0.0155 | 0.0181 | 0.0212 | 0.0246 | 0.0288 | 0.0334 | 0.0391 | 0.0454 | 0.051
in water | 2.53e-05 | 3.23e-05 | 4.15e-05 | 5.26e-05 | 6.68e-05 | 8.48e-05 | 0.000106 | 0.000129 | 0.000156 | 0.000187
